{
  "source": "patent US6949564B2",
  "about": "“NPY-5 antagonists” (Pfizer Inc., priority 2002, dated 2005)",
  "system": "endogenous NPY response (Y1) of human Bowes melanoma cells (HMCB)",
  "assay": "Block of endogenous NPY response in host human Bowes melanoma cells",
  "settings": "at 10 uM; host Bowes melanoma cells with low levels of Y1 responses",
  "data": [
    {"smiles": "NC(N)=NCCC[C@@H](NC(=O)C(c1ccccc1)c1ccccc1)C(=O)NCc1ccc(O)cc1", "note": "[BIBP3226]", "values": [
      {"measurement": "block of the endogenous NPY response", "value": "completely blocks"}
    ]}
  ]
}
